Assay results: US8618289B2 (Ambit Biosciences Corporation, priority 2008, dated 2013)
Where two headings read alike, the source gives them in different places.

Tests used:
[1] = tested on: 290 distinct kinases tested excluding mutant variants (321 in the larger panel); conditions: no asterisk: panel of 290 distinct kinases
Protocol: Competition binding assays used herein were developed, validated and performed as described in Fabian et al., Nature Biotechnology 2005, 23, 329-336. […] The liganded beads were blocked with excess biotin and washed with blocking buffer (SeaBlock (Pierce), 1% BSA, 0.05% Tween 20, 1 mM DTT) to remove unbound ligand and to reduce non-specific binding. […] Test compounds were prepared as 100× stocks in DMSO and rapidly diluted into the aqueous environment. DMSO was added to control assays lacking a test compound. Primary screen interactions were performed in polypropylene 384-well plates in a final volume of 34 μt, while Kd determinations were performed in polystyrene 96-well plates in a final volume of 135 pt. […] The kinase concentration in the eluates was measured by quantitative PCR. Each kinase was tested individually against each compound. Kds were determined using eleven serial threefold dilutions. A selectivity score, which is a quantitative measure of selectivity of a compound against a panel of enzymes, may be calculated for a compound by dividing the number of enzymes for which a compound meets a set criteria, (for example, a binding constant of 100 nM or less), by the total number of enzymes tested. […] (Note, for those compounds tested in a larger kinase panel, as indicated by an asterisk (*) next to the S35 score, the divisor is 321 (i.e. the larger panel contains 321 distinct kinases, excluding mutant variants.)).

[2] = molecular target: T1, RAF kinases (Homo sapiens, UniProt P15056); conditions: read-out: BRAF WT Kd; BRAF WT
[3] = molecular target: T2, RAF kinases (Homo sapiens, UniProt P04049); conditions: read-out: RAF1 Kd; RAF1
T2 sequence (P04049 whole entry): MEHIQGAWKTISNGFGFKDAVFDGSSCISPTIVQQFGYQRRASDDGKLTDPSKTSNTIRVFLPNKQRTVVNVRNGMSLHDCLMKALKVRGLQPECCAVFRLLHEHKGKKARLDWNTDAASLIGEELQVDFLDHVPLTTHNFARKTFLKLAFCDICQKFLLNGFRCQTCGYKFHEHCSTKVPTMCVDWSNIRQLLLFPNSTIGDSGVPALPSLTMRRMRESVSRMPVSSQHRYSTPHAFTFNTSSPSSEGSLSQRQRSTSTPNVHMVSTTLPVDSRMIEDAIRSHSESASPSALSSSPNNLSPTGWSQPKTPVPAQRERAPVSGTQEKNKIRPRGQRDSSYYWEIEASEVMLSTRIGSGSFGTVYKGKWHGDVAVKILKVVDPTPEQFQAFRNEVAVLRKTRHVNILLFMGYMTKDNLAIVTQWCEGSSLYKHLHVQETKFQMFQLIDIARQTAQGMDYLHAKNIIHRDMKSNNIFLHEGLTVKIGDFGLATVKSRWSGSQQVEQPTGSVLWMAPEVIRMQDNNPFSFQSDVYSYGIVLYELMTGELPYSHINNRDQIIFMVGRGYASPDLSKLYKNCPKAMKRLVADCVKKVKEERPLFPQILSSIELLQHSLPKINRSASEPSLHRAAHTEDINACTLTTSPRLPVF

[4] = tested on: MEK1 phosphorylation in the A375 human melanoma cell line; test: cells; conditions: A-375, read-out: pMEK IC50
Protocol: A375 cells (from American Type Culture Collection) were plated at 50,000 cells per well in DMEM (Mediatech) with 10% fetal bovine serum (Omega Scientific) into a 96 well plate and incubated overnight in a 37° C. incubator with 10% CO2. The cells were then washed with PBS and the medium replaced with 0.5% FBS for incubation overnight. […] The cells were incubated with compound or control for two hours at 37° C. The compound solution was aspirated off and the cells washed with cold PBS. […] The plate was centrifuged for 30 minutes to pellet out the cell debris. The cleared lysates were transferred to a 96-well Nunc plate and the ELISA protocol described by the manufacturer in Catalog #KHO0321 or KHO0291 was followed.

[5] = molecular target: T3, RAF kinases (Homo sapiens, UniProt P15056, V600E); test: biochemical
T3 sequence (P15056 whole entry V600E): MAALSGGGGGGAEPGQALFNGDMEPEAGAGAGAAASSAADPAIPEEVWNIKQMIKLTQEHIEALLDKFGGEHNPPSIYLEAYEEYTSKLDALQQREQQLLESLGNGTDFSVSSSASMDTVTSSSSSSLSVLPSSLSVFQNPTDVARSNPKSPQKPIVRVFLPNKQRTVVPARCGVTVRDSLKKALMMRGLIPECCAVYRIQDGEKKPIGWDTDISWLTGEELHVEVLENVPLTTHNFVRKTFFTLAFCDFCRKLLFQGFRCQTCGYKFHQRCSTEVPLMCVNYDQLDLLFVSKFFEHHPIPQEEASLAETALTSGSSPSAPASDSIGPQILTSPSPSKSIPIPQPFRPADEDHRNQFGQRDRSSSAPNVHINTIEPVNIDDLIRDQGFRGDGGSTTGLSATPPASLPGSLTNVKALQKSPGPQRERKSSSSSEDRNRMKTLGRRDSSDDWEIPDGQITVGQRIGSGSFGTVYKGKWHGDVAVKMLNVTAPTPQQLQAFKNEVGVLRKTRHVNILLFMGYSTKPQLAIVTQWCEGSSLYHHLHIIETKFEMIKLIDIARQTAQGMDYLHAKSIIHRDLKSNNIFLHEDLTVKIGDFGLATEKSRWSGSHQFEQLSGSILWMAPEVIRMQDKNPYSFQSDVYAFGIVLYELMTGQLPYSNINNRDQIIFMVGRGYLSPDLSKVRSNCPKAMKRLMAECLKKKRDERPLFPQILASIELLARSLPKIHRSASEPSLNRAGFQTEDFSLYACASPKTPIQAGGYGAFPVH

[6] = tested on: A375 cells; test: cells; conditions: Homo sapiens, A-375, read-out: A375 Viability EC50
[7] = molecular target: T2, RAF kinases; test: biochemical
[8] = molecular target: T3, RAF kinases; conditions: read-out: BRAF V600E Kd; BRAF V600E
[9] = molecular target: T1, RAF kinases; test: biochemical
[10] = tested on: Erk1/2; conditions: carrageenan-induced pleurisy rat model; Sawatzky et al.; cited from earlier work
[11] = tested on: tumor growth or metastases; conditions: preclinical studies; Sharma et al.; cited from earlier work

T1 sequence (P15056 whole entry): as the sequence (P15056 whole entry V600E) above, with E600V counted along it

SMILES	S35 [1]	Kd [2] [µM]	Kd [3] [µM]	IC50 [4] [µM]	Kd [5] [µM]	EC50 [6] [µM]	Kd [7] [µM]	Kd [8] [µM]	Kd [9] [µM]	eosinophilic proinflammatory cytokine release [10]	tumor growth or metastases in animals [11]
COc1cc2ncnc(Sc3cccc(NC(=O)Nc4cc(C(C)(C)C(F)(F)F)nn4-c4ccccc4)c3)c2cc1OC [Ex 307, 1-(3-(6,7-dimethoxyquinazolin-4-ylthio)phenyl)-3-(1-phenyl-3-(1,1,1-trifluoro-2-methylpropan-2-yl)-1H-pyrazol-5-yl)urea]	D (D > 0.40)	> 1	> 1	< 0.25	0.25 to 0.5	–	–	–	–	–	–
COc1cc2nc(Cl)nc(Oc3cccc(NC(=O)Nc4cc(C(C)(C)C)on4)c3)c2cc1OC [Ex 310, 1-(5-tert-butylisoxazol-3-yl)-3-(3-(2-chloro-6,7-dimethoxyquinazolin-4-yloxy)phenyl)urea]	A (A ≦ 0.10)	> 1	–	> 1	0.5 to 1	> 1	0.5 to 1	–	–	–	–
COc1cc2ncnc(Oc3cccc(NC(=O)Nc4cc(C(C)(F)F)nn4-c4cccnc4)c3)c2cc1OC [Ex 311, 1-(3-(1,1-difluoroethyl)-1-(pyridin-3-yl)-1H-pyrazol-5-yl)-3-(3-(6,7-dimethoxyquinazolin-4-yloxy)phenyl)urea]	C (0.20 < C ≦ 0.40)	< 0.25	< 0.25	0.25 to 0.5	–	0.25 to 0.5	–	< 0.25	–	–	–
COc1ccc(-n2nc(C(C)(F)F)cc2NC(=O)Nc2cccc(Oc3ncnc4cc(OC)c(OC)cc34)c2)cc1 [Ex 315, 1-(3-(1,1-difluoroethyl)-1-(4-methoxyphenyl)-1H-pyrazol-5-yl)-3-(3-(6,7-dimethoxyquinazolin-4-yloxy)phenyl)urea]	D (D > 0.40)	> 1	–	< 0.25	–	< 0.25	0.5 to 1	< 0.25	–	–	–
COc1cc2ncnc(Oc3cccc(NC(=O)Nc4cc(C(C)(C)C)nn4-c4ccc(=O)[nH]c4)c3)c2cc1OC [Ex 317, 1-(3-tert-butyl-1-(6-oxo-1,6-dihydropyridin-3-yl)-1H-pyrazol-5-yl)-3-(3-(6,7-dimethoxyquinazolin-4-yloxy)phenyl)urea]	D (D > 0.40)	> 1	–	> 1	–	> 1	0.5 to 1	< 0.25	–	–	–
COc1cc2ncnc(Oc3cccc(NC(=O)Nc4cc(C(C)(C)C)nn4-c4ccnc(C)c4)c3)c2cc1OC [Ex 320, 1-(3-tert-butyl-1-(2-methylpyridin-4-yl)-1H-pyrazol-5-yl)-3-(3-(6,7-dimethoxyquinazolin-4-yloxy)phenyl)urea]	D (D > 0.40)	> 1	> 1	< 0.25	–	–	–	< 0.25	–	–	–
COc1cc2ncnc(Oc3cccc(NC(=O)Nc4cc(C(C)(C)C)nn4C4CCCCC4)c3)c2cc1OC [Ex 330, 1-(3-tert-butyl-1-cyclohexyl-1H-pyrazol-5-yl)-3-(3-(6,7-dimethoxyquinazolin-4-yloxy)phenyl)urea]	C (0.20 < C ≦ 0.40)	> 1	> 1	> 1	–	> 1	–	< 0.25	–	–	–
COc1cc2ncnc(Oc3cccc(NC(=O)Nc4cc(C(C)(C)C)nn4-c4ccccc4Cl)c3)c2cc1OC [Ex 340, 1-(3-tert-butyl-1-(2-chlorophenyl)-1H-pyrazol-5-yl)-3-(3-(6,7-dimethoxyquinazolin-4-yloxy)phenyl)urea]	D (D > 0.40)	> 1	> 1	< 0.25	0.25 to 0.5	–	–	–	–	–	–
COc1cc2ncnc(Sc3cccc(NC(=O)Nc4cc(C(C)(C)C)nn4-c4ccccc4Cl)c3)c2cc1OC [Ex 341, 1-(3-tert-butyl-1-(2-chlorophenyl)-1H-pyrazol-5-yl)-3-(3-(6,7-dimethoxyquinazolin-4-ylthio)phenyl)urea]	C (0.20 < C ≦ 0.40)	> 1	> 1	< 0.25	0.25 to 0.5	–	–	–	–	–	–
COc1cc2ncnc(Oc3cccc(NC(=O)Nc4cc(C(C)(C)C)nn4-c4ccccc4C)c3)c2cc1OC [Ex 342, 1-(3-tert-butyl-1-o-tolyl-1H-pyrazol-5-yl)-3-(3-(6,7-dimethoxyquinazolin-4-yloxy)phenyl)urea]	D (D > 0.40)	> 1	> 1	< 0.25	0.25 to 0.5	–	–	–	–	–	–
COc1cc2ncnc(Sc3cccc(NC(=O)Nc4cc(C(C)(C)C)nn4-c4ccccc4C)c3)c2cc1OC [Ex 343, 1-(3-tert-butyl-1-o-tolyl-1H-pyrazol-5-yl)-3-(3-(6,7-dimethoxyquinazolin-4-ylthio)phenyl)urea]	C (0.20 < C ≦ 0.40)	> 1	> 1	< 0.25	0.25 to 0.5	–	–	–	–	–	–
COc1cc2ncnc(Oc3cccc(NC(=O)Nc4cc(C(C)(C)C)nn4-c4ccccn4)c3)c2cc1OC [Ex 344, 1-(3-tert-Butyl-1-(pyridin-2-yl)-1H-pyrazol-5-yl)-3-(3-(6,7-dimethoxyquinazolin-4-yloxy)phenyl)urea]	C (0.20 < C ≦ 0.40)	> 1	> 1	0.5 to 1	0.5 to 1	–	–	–	–	–	–
COc1cc2ncnc(Sc3cccc(NC(=O)Nc4cc(C(C)(C)C)nn4-c4ccccn4)c3)c2cc1OC [Ex 345, 1-(3-tert-butyl-1-(pyridin-2-yl)-1H-pyrazol-5-yl)-3-(3-(6,7-dimethoxyquinazolin-4-ylthio)phenyl)urea]	B (0.10 < B ≦ 0.20)	> 1	> 1	0.5 to 1	–	> 1	–	> 1	–	–	–
COc1cc2ncnc(Sc3cccc(NC(=O)Nc4cc(C5(C(F)(F)F)CC5)nn4-c4ccc(C)cc4)c3)c2cc1OC [Ex 347, 1-(3-(6,7-dimethoxyquinazolin-4-ylthio)phenyl)-3-(1-p-tolyl-3-(1-(trifluoromethyl)cyclopropyl)-1H-pyrazol-5-yl)urea]	D (D > 0.40)	> 1	> 1	< 0.25	0.25 to 0.5	–	–	–	–	–	–
COc1ccc(-n2nc(C(C)C)cc2NC(=O)Nc2cccc(Oc3ncnc4cc(OC)c(OC)cc34)c2)cc1 [Ex 348, 1-(3-(6,7-dimethoxyquinazolin-4-yloxy)phenyl)-3-(3-isopropyl-1-(4-methoxyphenyl)-1H-pyrazol-5-yl)urea]	D (D > 0.40)	> 1	–	< 0.25	–	< 0.25	0.5 to 1	< 0.25	–	–	–
COc1ccc(-n2nc(C(C)C)cc2NC(=O)Nc2cccc(Sc3ncnc4cc(OC)c(OC)cc34)c2)cc1 [Ex 349, 1-(3-(6,7-dimethoxyquinazolin-4-ylthio)phenyl)-3-(3-isopropyl-1-(4-methoxyphenyl)-1H-pyrazol-5-yl)urea]	C (0.20 < C ≦ 0.40)	> 1	–	< 0.25	–	< 0.25	0.5 to 1	< 0.25	–	–	–
COc1cc2ncnc(Oc3cccc(NC(=O)Nc4cc(C(C)C)nn4-c4cccnc4)c3)c2cc1OC [Ex 350, 1-(3-(6,7-dimethoxyquinazolin-4-yloxy)phenyl)-3-(3-isopropyl-1-(pyridin-3-yl)-1H-pyrazol-5-yl)urea]	D (D > 0.40)	< 0.25	< 0.25	0.25 to 0.5	–	0.25 to 0.5	–	< 0.25	–	–	–
CCc1cc(NC(=O)Nc2cccc(Oc3ncnc4cc(OC)c(OC)cc34)c2)n(-c2ccccc2)n1 [Ex 352, 1-(3-(6,7-dimethoxyquinazolin-4-yloxy)phenyl)-3-(3-ethyl-1-phenyl-1H-pyrazol-5-yl)urea]	C (0.20 < C ≦ 0.40)	< 0.25	< 0.25	0.5 to 1	–	0.25 to 0.5	–	< 0.25	–	–	–
COc1cc2ncnc(Oc3cccc(NC(=O)Nc4cc(C5CC5)nn4-c4ccccc4)c3)c2cc1OC [Ex 353, 1-(3-cyclopropyl-1-phenyl-1H-pyrazol-5-yl)-3-(3-(6,7-dimethoxyquinazolin-4-yloxy)phenyl)urea]	C (0.20 < C ≦ 0.40)	–	< 0.25	0.25 to 0.5	–	0.25 to 0.5	–	< 0.25	0.25 to 0.5	–	–
COc1cc2ncnc(Sc3cccc(NC(=O)Nc4cc(C5CC5)nn4-c4ccccc4)c3)c2cc1OC [Ex 354, 1-(3-cyclopropyl-1-phenyl-1H-pyrazol-5-yl)-3-(3-(6,7-dimethoxyquinazolin-4-ylthio)phenyl)urea]	C (0.20 < C ≦ 0.40)	< 0.25	< 0.25	0.25 to 0.5	–	0.25 to 0.5	–	< 0.25	–	–	–
COc1cccc(-c2cc(=O)c3ccccc3o2)c1N [PD98059]	–	–	–	–	–	–	–	–	–	inhibits eosinophilic proinflammatory cytokine release	–
CNC(=O)c1cc(Oc2ccc(NC(=O)Nc3ccc(Cl)c(C(F)(F)F)c3)cc2)ccn1 [Sorafenib]	–	–	–	–	–	–	–	–	–	–	decrease in tumor growth or metastases
